# Measured values reported in patent US12019083B2, “Compound distribution in microfluidic devices” (EMULATE, Inc., priority 2019, dated 2024).
# Entries after “also recorded” stand apart in the source; their conditions may differ.
# Tests used:
# [1] = Time-dependent material absorption test in vials, PDMS; type: physicochemical; conditions: for absorption into PDMS: recovered concentration compared to dosing concentration
# Procedure: (§1) A method for ascertaining the absorption of a specific small-molecule into a polymer was developed. The output of this method are the fundamental parameters that fully define the absorption of a specific compound into the material tested; specifically, the diffusivity and partition coefficient are ascertained. […] The steps for ascertaining this absorption is as follows: • 1. Dissolve the small molecule in an aqueous phase (medium) and incubate the solution (30) with the tested material (31), such as in a vial (29). The incubation should be long enough so that diffusion is not limiting absorption and the transport into the material is at equilibrium with the transport of the compound out of the material and into the aqueous phase. • 2. Sample media from the vials at a number of time points. • 3. Measure the concentration of the small molecule remaining in the aqueous phase (30) using a mass spectrometer, plate reader, etc. from the media sampled. • 4. Curve-fit the measured data to quantify the absorption and diffusion parameters.
# (§2) Each experiment includes a number of controls and test conditions. Using multiple controls and test conditions allows absorption to the vial and well-plate to be characterized, as well as absorption versus adsorption to the tested material, as well as yielding the time-dependent nature of absorption into the material. […] The goals of the experiments are to directly quantify partitioning of the compound, or compound loss at equilibrium (kinetics), and to directly quantify diffusion of the compound, or time-dependent compound loss (dynamics).
# (§3) Single time point experiments are only capable of extracting kinetics, not dynamics. Time-dependent studies capture not only equilibrium endpoints (K), but also time-dependent changes/dynamics (D). One-dimensional computational models are used to fit experimental results of time-dependent studies. […] Once the particular curve is known, the parameters which defined that curve are taken as the fundamental parameters defining the material-compound absorptive interaction.
# [2] = Time-dependent material absorption test in vials, SEBS; type: physicochemical; conditions: for absorption into SEBS: recovered concentration compared to dosing concentration
# Procedure: as §1, §2, §3
# [3] = recovered concentration compared to dosing concentration
# Text: Curve-fit the measured data to quantify the absorption and diffusion parameters.
# [4] = Flow absorption study in PDMS microfluidic device / compound distribution kit; type: physicochemical
# Text: An exemplary method may follow the method of an intended experiment or study. As an example, the compound distribution kit may be used with microfluidic devices. An exemplary method for use with microfluidic devices may follow an intended study method with the following changes: no coatings, no cell seeding, and reduced number of compound doses. In one embodiment, there may not be a need to perform coatings on the microfluidic device that are related to biological aspects of the experiment. Some coatings, such as those that change the chemistry of the microfluidic device material makeup, may need to be done, especially if they may affect compound absorbency. It one embodiment, coatings are done with the compound distribution kit at the discretion of the user. In one embodiment, cell seeding is not needed. In one embodiment, if the intended-study protocol compares several concentrations of a test compound, the absorption control experiment need only be run for one of these concentrations. In one embodiment, it is recommended to use the highest compound concentration planned for the intended study, in order to maximize quantification (e.g. LCMS) sensitivity. However, a lower concentration of test compound may be selected if there are concerns about the compound's solubility limits or it crashing out of solution at the higher concentration. Crashing out of solution is when the concentration of a solute in a solution reaches a point where the solute precipitates. In one embodiment, the compound is dosed for the same duration, at the same flow rate, in the same microfluidic channel(s) as per the intended protocol, experiment or study. That is, if the intended study specifies dosing only in a first channel, with no compound in a second channel, then the same method would be applied during the use of the compound distribution kit. In one embodiment, media and solution should be the same during use of the compound distribution kit as in the intended study. In one embodiment, the same media or solution, as well as any additives or supplements, as medium composition and additives can interact with test compounds (e.g. protein binding). In one embodiment, media or solutions should also be equilibrated in the same manner, such as degassing and preheating. In one embodiment, effluent samples taken during use of the compound distribution kit should be collected at the same time as the intended study. Compound distribution can be a highly dynamic process, and as such matching time points may be able to ensure that the results of the compound distribution kit correspond closely to the intended study. […]
# [5] = First round absorption study on Parylene coated SEBS and PDMS gaskets (plate reader); type: physicochemical; conditions: coating thickness 2 μm and 8 μm; exposure 0, 14, 40 and 72 hours
# Text: Two quantitative studies were run on Parylene coated materials in order to assess its effectiveness in minimizing small molecule absorbency. In the first study Parylene coated SEBS and Parylene coated PDMS were both exposed to Rhodamine B and Coumarin. In the second study the absorption of Parylene coated SEBS and Parylene coated E140 were compared to the absorption of known low-absorbing materials, such as glass and COP.
# In the first round of absorption studies, SEBS and PDMS gaskets were coated with Parylene at two thicknesses: 2 μm and 8 μm. Parylene-coated gaskets were exposed to Rhodamine B and Coumarin for 0, 14, 40 and 72 hours. The remaining concentration of Rhodamine B and Coumarin in the exposure solution were measured on a plate reader. Each condition was tested on two gaskets. Limited replicates were available due to the number of conditions run. This “shotgun approach” was used in order to try many coating conditions and quickly determine the best options. […] FIG. 33B depicts the fraction of Rhodamine B recovered from the solutions for coatings of varying thickness on two materials known to absorb. […] One observation from the experiment was that the Parylene may crack, leading to gasket absorption. Another observation from the experiment was that Parylene adhesion to the PDMS and SEBS was poor, resulting in easy removal of Parylene. […]
# [6] = Second round absorption study: Parylene coated SEBS and E140 compared with glass, COP and control solution; type: physicochemical
# Text: Two quantitative studies were run on Parylene coated materials in order to assess its effectiveness in minimizing small molecule absorbency. In the first study Parylene coated SEBS and Parylene coated PDMS were both exposed to Rhodamine B and Coumarin. In the second study the absorption of Parylene coated SEBS and Parylene coated […] were compared to the absorption of known low-absorbing materials, such as glass and COP. In the second round of absorption studies, after parylene-coating process optimization, the absorption of Parylene coated SEBS and Parylene coated […] were compared to both the absorption of known low-absorbing materials, such as glass and COP, and a control solution of the drug not in contact with a material. The coated materials were exposed to a solution carrying a known concentration of the drug, Coumarin. The solution was tested three times to quantify the remaining concentration of the Coumarin, before exposure to the material, at 22 hours and at 92 hours. […] SEBS absorbed more of the compound than […].
# [7] = Flow study of microfluidic device in fluidic communication with perfusion manifold assembly; type: physicochemical
# Text: FIGS. 98A and 98B show a comparison between a computational (COMSOL) model results and actual experimental results for cellular exposure ranges of the small-molecule compound Coumarin. […] For this experiment the microfluidic device was in fluidic communication with a perfusion manifold assembly. […] FIGS. 99A and 99B show a comparison between a computational (COMSOL) model results and actual experimental results for cellular exposure ranges of the small-molecule compound Coumarin. […] For this experiment the microfluidic device was in fluidic communication with a perfusion manifold assembly.
# [8] = Fluorescent imaging of Parylene-coated gaskets exposed to Rhodamine B; type: physicochemical
# Text: Parylene-coated PDMS gaskets were exposed to the fluorescent molecule Rhodamine B and fluorescently imaged. […] However, the absorption is primarily localized to areas with sharp corners. […] Parylene-coated SEBS gaskets were exposed to the fluorescent molecule Rhodamine B and fluorescently imaged as well. […] However, the absorption is primarily localized to areas with sharp corners. Some absorption can be seen inside of the via, but it was minimal, difficult to visualize, and quite possibly an optical artifact unrelated to absorption.
# [9] = Fluorescent molecule absorption in perfusion manifold assemblies under flow; type: physicochemical; conditions: 30 μL/hr for 38 hours
# Procedure: Fluorescent molecule Rhodamine B (a fluorescent molecule that is also moderately absorbing into PDMS and SEBS) was dissolved in a buffer, flowed through a perfusion manifold assembly (14) and absorbing microfluidic device (12) fabricated out of PDMS at 30 μL/hr for 38 hours on a culture module. The perfusion manifold assemblies (14) were rinsed with buffer not containing the fluorescent molecule at 200 μL/hr for an hour before the start of the experiment.
# Following the experiment, the perfusion manifold assemblies (14) were disassembled and the vias (35) of the capping, gasketing and backplane assembly or fluidic layer assembly (34), as well as the perfusion manifold assembly (14) resistors (27), were imaged with fluorescent microscopy. FIG. 25A depicts the resulting fluorescence in the fluidic layer assembly (34) of an absorbing perfusion manifold assembly (14) comprising a combined gasketing and capping layer (26). FIG. 25B depicts the resulting fluorescence on one aspect the invention described herein, a low-absorbing perfusion manifold assembly comprising both a low-absorbing capping and low-absorbing gasketing layer. In the embodiment of the perfusion manifold assembly (14) used in the experiment, the capping layer was fabricated from COP and the gasketing layer was fabricated out of SEBS coated with Parylene. Bright white colors in FIGS. 25A and 25B correlate to greater degree of absorption of the fluorescent molecule Rhodamine B.
# [10] = tested before exposure, at 22 hours and at 92 hours
smiles,measurement,setting,value
CCc1cccc2cc(C(O)CNC(C)(C)C)oc12 (stereo not shown) [Bufuralol],PDMS partition value (K),[1],greater than 216
same,recovered concentration from the PDMS experiments,[1]; LCMS,below the lower limit of detection
same,absorption into PDMS,[1],absorbed almost entirely
same,SEBS partition value (K),[2],4.77
same,absorption into SEBS,[2],absorbed somewhat
same,"absorption into glass, polypropylene, polystyrene or COP",[3],did not absorb significantly
"C=C(C)[C@@H]1CCC(C)=C[C@H]1c1c(O)cc(CCCCC)cc1O [CBD, cannabidiol]",measured outlet concentrations of the compound,[4]; microfluidic device fabricated entirely from PDMS,0
same,absorption or loss of compound in microfluidic device fabricated from entirely PDMS,"[4]; several flow rates, even at the highest flow rate",complete/total absorption or loss of compound
O=c1ccc2ccccc2o1 [Coumarin],absorption by Parylene coated PDMS and SEBS,[5],some Coumarin was absorbed
same,absorption into materials coated with Parylene,"[6]; Parylene coated SEBS and E140, 22 and 92 hours",do not absorb significant amounts
same,absorption into glass and COP compared to control solution,[6]; [10],did not absorb
same,absorption into uncoated SEBS and E140,[6]; [10],both absorb; also recorded: SEBS absorbed more of the compound than E140
same,effect of flow rate on absorption into PDMS,"[4]; 60 μL/hr versus 150 μL/hr, bottom channel sampled",less compound is absorbed into PDMS at faster flow rates
same,absorption into SEBS of the perfusion manifold assembly,[7],especially susceptible to absorption
CN1C(=O)CN=C(c2ccccc2)c2cc(Cl)ccc21 [Diazepam],fraction of Diazepam absorbed by PDMS,[1]; by hour 12 of contact with PDMS,⅔ and two thirds
Cc1ncc2n1-c1ccc(Cl)cc1C(c1ccccc1F)=NC2 [Midazolam],PDMS partition value (K),[1],201
same,absorption into PDMS,[1],absorbed significantly
same,SEBS partition value (K),[2],4.05
same,absorption into SEBS,[2],absorbed somewhat
same,"absorption into glass, polypropylene, polystyrene or COP",[3],did not absorb significantly
CCN(CC)c1ccc2c(-c3ccccc3C(=O)O)c3ccc(=[N+](CC)CC)cc-3oc2c1 [Rhodamine B],absorption by Parylene coated PDMS and SEBS,[5],minimal Rhodamine B was absorbed
same,absorption in Parylene-coated SEBS gaskets (microscopy),[8],some minimal absorption is present
same,absorption within the microfluidic device ports of Parylene-coated PDMS gaskets,[8]; ports leading into the channels,No absorption was seen
same,absorption in Parylene-coated PDMS gaskets (microscopy),[8]; whole gasket,some absorption is present but localized to areas that might not have been fully coated
same,absorption in perfusion manifold assemblies with COP capping layer and Parylene coated SEBS gasketing layer,[9],did not absorb a significant amount
same,absorption in perfusion manifold assembly with COP capping layer and non-coated SEBS gasketing layer,[9],absorbed the fluorescent molecule
same,absorption in perfusion manifold assembly with combined gasketing and capping layer,[9],absorbed the fluorescent molecule
same,absorption in resistors capped with COP,[9],very little
same,absorption in resistors capped with SEBS,[9],relatively high extent
same,rate and extent of absorption,[4]; flow study outlet concentrations,"lower rate of absorption, but higher extent of absorption"
CN(C)CCC=C1c2ccccc2CCc2ccccc21 [amitriptyline],absorption into PDMS,[1],absorb into PDMS
